According to article PMC9403717, “Ruthenium complexes show potent inhibition of AKR1C1, AKR1C2, and AKR1C3 enzymes and anti-proliferative action against chemoresistant ovarian cancer cell line” (Frontiers in Pharmacology, 2022):
Changes are numbered by the printed parent chain. pIC50, pKi: −log10 of the molar value. Read-outs that look alike come from different tables or passages of the source.

Legend:
[1] = target: T1, AKR1C3 (Homo sapiens, UniProt P42330); design: method as in Traven et al., 2015; settings: ref Traven et al., 2015; cited from earlier work
T1 construct: made in house
T1 sequence (P42330 1-323): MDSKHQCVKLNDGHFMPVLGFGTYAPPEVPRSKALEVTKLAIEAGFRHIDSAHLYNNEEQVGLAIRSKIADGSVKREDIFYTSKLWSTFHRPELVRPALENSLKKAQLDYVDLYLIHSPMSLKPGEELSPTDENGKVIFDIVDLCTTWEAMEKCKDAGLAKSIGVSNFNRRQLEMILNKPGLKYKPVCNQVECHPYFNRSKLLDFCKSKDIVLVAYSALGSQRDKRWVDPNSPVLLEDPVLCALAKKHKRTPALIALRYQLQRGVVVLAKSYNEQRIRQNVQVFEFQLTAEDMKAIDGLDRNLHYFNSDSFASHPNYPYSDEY

[2] = system: COV362 cells; assay: Cell proliferation assay (alamarBlue), chemoresistant ovarian cancer cell line COV362; format: cell-based, human; settings: for pIC50: 48 h incubation
Procedure: (§1) The cell line COV362 (CVCL_2,420) was originally established from a high-grade ovarian serous adenocarcinoma from a metastatic site in the pleural effusion ([van den Berg-Bakker et al., 1993]) and was purchased from ECACC (ECACC 07071910) as p37 on 13 October 2017. The growth medium for COV362 cells was DMEM (D5546; Sigma–Aldrich GmbH), with 10% FBS (F9665; Sigma–Aldrich GmbH) and 2 mM L-glutamine (G7513; Sigma–Aldrich GmbH). COV362 cells in passages p37 + 12 to p37 + 17 were used in this study and seeded at a concentration of 3.5 cells/ml × 10^4 cells/ml for proliferation studies and at a concentration of 5.3 × 10^5/ml for migration studies. The cell line OVCAR-4 (CVCL_1,627) is a high-grade serous ovarian adenocarcinoma cell line established from a patient refractory to cisplatin ([Johnson et al., 1997]). The cell line was purchased from Merck on 19 March 2021. The growth medium for OVCAR-4 cells was RPMI-1640 (Sigma R5586) supplemented with 2 mM glutamine (G7513; Sigma–Aldrich GmbH), 10% FBS (F9665; Sigma–Aldrich GmbH), 0.25 μg/ml insulin (I9278; Sigma–Aldrich GmbH). OVCAR-4 cells in passages p+6 to p+15 were used in this study and seeded at a concentration of 6 cells/ml × 10^4 cells/ml. The control cell line HIO80 (CVCL_E274) was obtained from Andrew K. Godwin (University of Kansas Medical Center, Kansas, United States) on 20 October 2017 as p+72. It was originally established from ovarian surface epithelium ([Yang et al., 2004]). HIO80 cells were grown in RPMI medium (R5886, Sigma–Aldrich GmbH) supplemented with 10% FBS (F9665; Sigma–Aldrich GmbH), 2 mm L-glutamine (G7513; Sigma–Aldrich GmbH) and 6.6 µg/ml insulin (I9278; Sigma–Aldrich GmbH). HIO80 cells in passages p72 + 8 to p72 + 19 were used in this study and seeded at a concentration of 2 × 10^4 cells/mL. HIO80 in passage +10 was authenticated by short tandem repeats (STR) profiling performed by ATCC on 22 February 2019. Cells were grown in a humidified atmosphere containing 5% CO2 at 37°C. All cell lines were negative for mycoplasma infection which was periodically tested using MycoAlert^TM mycoplasma detection kit (Lonza, Basel, Switzerland).
(§2) The effect of ruthenium compounds on the proliferation of ovarian cancer cell lines COV362 and OVCAR-4 and the control cell line HIO80 was analyzed using the cell proliferation reagent alamarBlue HS (A50101; Thermo Fisher Scientific) following the manufacturer’s instructions.
(§3) Cells were seeded in 96-well plates in 100 µL of medium and allowed to adhere and grow for 24 h. […] Cisplatin and carboplatin purchased from Sigma–Aldrich GmbH (cat. number: PHR1624, lot: LRAB7778) and (cat. number: C2538, lot: MKCK1243) were dissolved in sterile water. Working solutions were prepared by a serial dilution of stock solutions with a culture medium. After the initial incubation, cells were treated with ruthenium complexes, cisplatin, and carboplatin. A range of final concentrations between 0.001 and 300 µM were used for ruthenium complexes and cisplatin, and between 0.001 µM and 1 mM for carboplatin. After 48 h of incubation, plates were incubated with 20 µL of alamarBlue. After 4 h absorbance was measured with a BioTek microplate spectrophotometer at 570 nm, with the reference wavelength set at 600 nm. First, the background value of a well containing the active substance without cells was subtracted, then the average values for duplicates/triplicates were calculated. The absorbance of the well containing only untreated cells was used as a normalization control. The half-maximal […] concentration (IC50) was determined for all ruthenium complexes with a growth-inhibiting effect on cells by constructing a dose-response curve (Graph Pad Prism, Version 8.0).

[3] = target: T2, AKR1C2 (Homo sapiens, UniProt P52895); design: method as in Bauman et al., 2005; settings: ref Bauman et al., 2005; cited from earlier work
T2 construct: made in house
T2 sequence (P52895 1-323): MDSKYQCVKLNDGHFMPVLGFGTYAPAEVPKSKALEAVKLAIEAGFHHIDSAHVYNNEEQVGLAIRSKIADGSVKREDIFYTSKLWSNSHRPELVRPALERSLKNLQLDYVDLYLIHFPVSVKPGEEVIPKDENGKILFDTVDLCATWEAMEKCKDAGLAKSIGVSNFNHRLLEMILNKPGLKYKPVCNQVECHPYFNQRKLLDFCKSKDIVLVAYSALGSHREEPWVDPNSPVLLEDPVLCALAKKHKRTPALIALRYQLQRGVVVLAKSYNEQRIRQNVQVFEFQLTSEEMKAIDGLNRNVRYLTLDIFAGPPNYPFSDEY

[4] = target: T1, AKR1C3; assay: Inhibition of recombinant AKR1C3, oxidation of 1-acenaphthenol, progress-curve analysis; format: biochemical; settings: AKR1C3
Procedure: (§4) To investigate the effect of ten selected ruthenium compounds, we measured their effect on the time course of oxidation of the artificial substrate 1-acenaphtenol by recombinant enzymes AKR1C1–3. The recombinant enzymes AKR1C1–AKR1C3 were prepared as described previously ([Brozic et al., 2006]). Since the artificial substrate is racemic, the oxidation follows a double exponential pattern as described previously ([Traven et al., 2015]). The in vitro catalytic activity of AKR1C1–3 enzymes was determined spectrophotometrically by monitoring the increase in NADH absorbance at 340 nm (ε(λ340) = 6220 M^−1cm^−1) in the presence of the substrate 1-acenaphthenol. Enzymatic reactions (300 µL) were performed in 100 mm potassium phosphate buffer (pH 9.0), 0.005% (v/v) TritonX-114, 5% (v/v) DMSO, containing 2.3 mm NAD^+ and 1-acenaphthenol at final concentrations of 90, 180, and 250 µM for AKR1C1, AKR1C2, and AKR1C3, respectively. A total of 5 µL of a tested compound in DMSO was added to the reaction mixture. The final concentrations of the tested compounds ranged from 1 to 200 μM, depending on the extent of inhibition (Supplementary Data). The reaction was started by adding 15 µL of AKR1C1, AKR1C2, or AKR1C3 dissolved in 1x PBS (pH 7.3) at final concentrations of 0.11, 0.16, and 1.5 µM, respectively. AKR1C1–3 activity was measured at 37°C for 3 h without shaking using a PowerWave XS microplate reader (Biotek; Winooski, VT, United States). Measurements at seven different concentrations were performed in duplicates or triplicates (Supplementary Figures S2). To mechanistically explain all the obtained progress curves for each ruthenium complex on each enzyme by a common reaction scheme, we extended the originally proposed scheme so that the interaction of the ruthenium complex with apo- and holoenzyme was allowed to be rapid and followed by a slow irreversible association of a second ruthenium complex molecule. However, the affinity of the Ru complexes for the apoenzymes was much lower so this part was excluded from the proposed kinetic model for clarity (Figure 4).
(§5) FIGURE 4 Reaction scheme for the oxidation of 1-acenaphtenol by AKR1C1-3 and its inhibition by ruthenium compounds. E represents apoenzyme, E-NAD and E-NADH represent holoenzyme with bound NAD^+ and NADH, respectively. A and B are enantiomers of substrate 1-acenaphtenol. Symbols which include I (ruthenium compound) represent holoenzyme in complex with one or two inhibitor molecules. KNAD, KNADH, and K2-3 are equilibrium constants and k+2–3 are second-order association rate constants for the binding of the second inhibitor molecule to the enzyme. The progress curves for each enzyme in the presence of ruthenium complexes were analyzed by the WEB server ENZO (https://enzo.cmm.ki.si/) designed exactly for such purposes ([Bevc et al., 2011]).

[5] = target: T2, AKR1C2; assay: Inhibition of recombinant AKR1C2, oxidation of 1-acenaphthenol, progress-curve analysis; format: biochemical; settings: AKR1C2
Procedure: as §4, §5

[6] = target: T3, AKR1C1 (Homo sapiens, UniProt Q04828); assay: Inhibition of recombinant AKR1C1, oxidation of 1-acenaphthenol, progress-curve analysis; format: biochemical
T3 construct: made in house
T3 sequence (Q04828 1-323): T2 sequence (P52895 1-323) with V38T, H47R, V54L, S87C, M151V, H170R, L172Q
Procedure: as §4, §5

[7] = target: T1, AKR1C3; design: method as in Qiu et al., 2007; settings: ref Qiu et al., 2007; cited from earlier work
[8] = system: HIO80 cells; assay: Cell proliferation assay (alamarBlue), control cell line HIO80; format: cell-based, human; settings: 48 h incubation
Procedure: as §1, §2, §3

[9] = system: OVCAR-4 cells; assay: Cell proliferation assay (alamarBlue), OVCAR-4; format: cell-based, human; settings: OVCAR-4; 48 h incubation
Procedure: as §1, §2, §3

[10] = system: COV362 cells; assay: Cell migration assay (Ibidi culture inserts), COV362; format: cell-based, human; settings: 100 μM, 24 and 48 h
Procedure: Cell migration assay was performed using Ibidi® three-well culture inserts. The inserts were placed in six-well plates. In total, 70 µL of cell suspension was seeded in the inserts and allowed to adhere and grow for 24 h. When the cells formed a confluent monolayer, the inserts were carefully removed and the cells were washed two times with DPBS. Cells were treated with 100 μM (final concentration) of compounds 8, 9, cisplatin, and carboplatin in 2 ml of growth medium. Cells treated with a medium containing the same volume of sterile water or DMSO were used as the controls. Images of cell gaps were taken with Axio Scope A1 Polarized Light Microscope (Zeiss) at the time of treatment, 24 and 48 h after, and analyzed using ImageJ software.

[11] = system: MCF-7; settings: ref Kljun et al., 2016; cited from earlier work
[12] = irreversible binding of second inhibitor molecule to E-NAD-I
[13] = reversible binding to holoenzyme E-NAD, read-out: K2

SMILES: Cc1ccc(C(C)C)cc1.Cc1ccc(C(C)C)cc1.[Cl][Ru][Cl].[Cl][Ru][Cl] [Compound P1, [(η^6-p-cymene)RuCl(μ-Cl)]2]
- Ki values (in words) [1]: nM Ki values

SMILES: Oc1c(I)cc(Cl)c2cccnc12 [Clioquinol, reference compound]
- fold lower IC50 value compared to Ru-pta complex 8 [2]: 1.9 fold
- pIC50 ([2]; Homo sapiens): 4.70

SMILES: O=[N+]([O-])c1ccc(O)c2ncccc12 [Nitroxoline, reference compound]
- fold lower IC50 compared to Ru-chlorido complex 9 [2]: 4 fold
- pIC50 ([2]; Homo sapiens): 5.18

SMILES: C[C@H](CCC(=O)O)[C@H]1CC[C@H]2[C@@H]3CC[C@@H]4CC(=O)CC[C@]4(C)[C@H]3CC[C@]12C [5β-cholanic acid-3-one]
- pKi [3]: 7.68

SMILES: Cc1ccc(C(C)C)cc1.[Cl][Ru]([Cl])[PH]12CN3CN(CN(C3)C1)C2 [RAPTA-C, reference compound]
- pIC50 [2]: < 3.52

SMILES: CN(C)c1ccc(C(=O)C=C([O][Ru+][PH]23CN4CN(CN(C4)C2)C3)C(F)(F)F)cc1.Cc1ccc(C(C)C)cc1.F[P-](F)(F)(F)(F)F [Compound 4, (η^6-p-cymene)(4,4,4-trifluoro-1-(4-(dimethylamino)phenyl)-1,3-butandionato)(pta)ruthenium(II) hexafluorophosphate]
- k+2 [4, 12]: 1.8 M⁻¹ s⁻¹
- pKi [4, 13]: 3.36
- k+2 [5, 12]: 1.9 M⁻¹ s⁻¹
- pKi [5, 13]: 3.47
- k+2 [6, 12]: 1.4 M⁻¹ s⁻¹
- pKi [6, 13]: 4.06

SMILES: CC1(C)CC[C@@]2(CC[C@H]3[C@@H]4CCc5cc(C(N)=O)ccc5[C@H]4CC[C@@]32C)OC1=O [EM1404]
- pKi [7]: 8.16

SMILES: N.N.O=C([O-])C1(C(=O)[O-])CCC1.[Pt+2] [Carboplatin, reference compound]
- pIC50 [8]: 3.88
- pIC50 [9]: 4.14
- pIC50 [2]: 3.57
- effect on cell migration (in words) [10]: Significant cell migration was observed

SMILES: [O-][n+]1ccccc1S [pyrithione]
- IC50 values (in words) [11]: low µM

SMILES: N.N.[Cl][Pt][Cl] [Cisplatin, reference compound]
- pIC50 [8]: 5.16
- pIC50 [9]: 5.38
- pIC50 [2]: 4.87
